Assay results from US20250332293A1, “METHOD FOR MANUFACTURING BIOCOMPATIBLE NANOPARTICLES WITH A PEPTIDE CORE EXHIBITING SECOND- AND THIRD-HARMONIC SIGNAL GENERATION” (MAX-PLANCK-GESELLSCHAFT ZUR FÖRDERUNG DER WISSENSCHAFTEN E. …, priority 2016, published 2025).
Residues, ends and D or L forms follow the SMILES beside them.

Experiments:
proteinase K = proteinase K (Parengyodontium album, UniProt P06873); assay: Digestion of self-assembled structures by proteinase K, SHG image time series; format: in vitro ADME; conditions: no polymer shell, aqueous solution with proteinase K, 0 to 60 minutes
Protocol: The digestion 201 is facilitated by a proteinase K.
The proteinase K digests the self-assembled structure into single phenylalanines.
In FIG. 6 the corresponding SHG images of a digestion 201 of self-assembled structures of triphenylalanines 41 suspended in aqueous solution with proteinase K is shown. Here, image A) has been taken at time 0 minutes, image B) at 20 minutes, C) at 40 minutes and image D) after 60 minutes after adding proteinase K to the solution.

[1] = Stability of SHG signal with regard to pH of the solvent; format: physicochemical
Protocol: The disassembly occurs within minutes (˜5 minutes) after incubation in pH 4.
Panel A: SHG signal after incubation of the nanoparticles for 72 hours in a buffer at pH 7. Same as in panel A, but at pH 6. Same as in panel A, but at pH 5. Panel D: same as in panel A, but at pH 4.
In FIG. 16a, the effect of different pH values on the SHG signal intensity are shown as a diagram. The nanoparticles were incubated at different pH values for 72 hours (n=5). Representative images showing SHG signal intensity after the nanoparticles were incubated in buffers at FIG. 16b, pH 7, FIG. 16c, pH 6, FIG. 16d, pH 5, and FIG. 16e, pH 4. Scalebar, 10 μm. Mean±s.d. n.s., not significant (Ordinary one-way ANOVA with Tukey's multiple comparisons).

[2] = Stability of SHG signal with regard to dilution; format: physicochemical; conditions: 10 mg/ml (versus 100 mg/ml)
Protocol: Panel A: LIVAGK peptides' SHG signal at a concentration of 100 mg/ml. Panel B: LIVAGK peptides' SHG signal at a concentration of 10 mg/ml.

proteinase K, sequence (P06873 106-384): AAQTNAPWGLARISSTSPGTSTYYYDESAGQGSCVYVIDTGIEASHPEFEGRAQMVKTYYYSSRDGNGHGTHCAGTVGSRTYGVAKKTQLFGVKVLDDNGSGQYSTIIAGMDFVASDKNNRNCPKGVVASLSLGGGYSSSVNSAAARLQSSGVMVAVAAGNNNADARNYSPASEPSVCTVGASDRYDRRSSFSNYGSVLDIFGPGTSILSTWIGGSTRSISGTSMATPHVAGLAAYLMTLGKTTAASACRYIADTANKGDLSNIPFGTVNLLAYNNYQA

Row | Compound | SHG signal during proteinase K digestion (proteinase K) | assembly state / SHG signal at pH 4 ([1]; pH 4, 100 mg/ml) | time to disassembly after incubation in pH 4 ([1]; pH 4, 100 mg/ml) | assembly state / SHG signal at pH 7 ([1]; pH 7, 100 mg/ml) | SHG signal on dilution [2]
1 | N[C@@H](Cc1ccccc1)C(=O)N[C@@H](Cc1ccccc1)C(=O)N[C@@H](Cc1ccccc1)C(=O)O [triphenylalanine, Phe-Phe-Phe] (H-Phe-Phe-Phe-OH; N-terminus and C-terminus assumed) | decreasing over the course of time | – | – | – | –
2 | LIVAGK | – | disassemble | ~5 minutes | still assembled | no SHG signal can be observed
